Assay results taken from ChEMBL document CHEMBL1145245, “Uracils as potent antagonists of the human gonadotropin-releasing hormone receptor without atropisomers” (Bioorg Med Chem Lett, 2005).

What follows are compounds tested against T1, Gonadotropin-releasing hormone receptor (Homo sapiens, UniProt P30968) (assay: Binding affinity towards human gonadotropin-releasing hormone receptor (GNRHR) using GnRH peptide as radioligand).
T1 sequence (P30968 whole entry): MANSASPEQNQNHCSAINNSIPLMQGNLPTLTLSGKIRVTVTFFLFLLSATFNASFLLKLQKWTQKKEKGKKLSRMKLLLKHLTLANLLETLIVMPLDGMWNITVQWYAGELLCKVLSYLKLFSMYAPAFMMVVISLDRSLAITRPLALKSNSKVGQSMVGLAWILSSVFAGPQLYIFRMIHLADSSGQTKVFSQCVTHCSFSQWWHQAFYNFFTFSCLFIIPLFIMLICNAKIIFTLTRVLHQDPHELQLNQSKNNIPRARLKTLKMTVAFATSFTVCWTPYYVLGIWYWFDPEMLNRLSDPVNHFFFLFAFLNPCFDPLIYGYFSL

Ki [nM]	Compound
1.4	COc1cccc(-c2cn(Cc3c(F)cccc3Cl)c(=O)n(C[C@H](N)c3ccccc3)c2=O)c1F
120	COc1cccc(-c2cn(Cc3c(F)cccc3S(=O)(=O)N(C)C)c(=O)n(C[C@H](N)c3ccccc3)c2=O)c1F
9.1	COc1cccc(-c2cn(Cc3c(F)cccc3S(=O)(=O)CCO)c(=O)n(C[C@H](N)c3ccccc3)c2=O)c1F
19	COc1cccc(-c2cn(Cc3c(F)cccc3SC)c(=O)n(C[C@H](N)c3ccccc3)c2=O)c1F
1400	COc1cccc(-c2cn(Cc3c(F)cccc3S(=O)(=O)N3CCOCC3)c(=O)n(C[C@H](N)c3ccccc3)c2=O)c1F
30	COc1cccc(-c2cn(Cc3c(F)cccc3S(=O)(=O)C(C)C)c(=O)n(C[C@H](N)c3ccccc3)c2=O)c1F

More lines, now with the values behind:

Compound	Ki [nM]
N[C@@H](Cn1c(=O)c(-c2ccccc2C(F)(F)F)cn(Cc2c(F)cccc2C(F)(F)F)c1=O)c1ccccc1	4
CS(=O)(=O)c1cccc(C(F)(F)F)c1Cn1cc(-c2ccccc2Cl)c(=O)n(C[C@H](N)c2ccccc2)c1=O	3100
Cc1ccc(-c2cn(Cc3c(F)cccc3C(F)(F)F)c(=O)n(C[C@H](N)c3ccccc3)c2=O)c(Cl)c1	2.6
N[C@@H](Cn1c(=O)c(-c2cccc(O)c2F)cn(Cc2c(F)cccc2C(F)(F)F)c1=O)c1ccccc1	18
N[C@@H](Cn1c(=O)c(-c2cccc(OCC(F)(F)F)c2F)cn(Cc2c(F)cccc2C(F)(F)F)c1=O)c1ccccc1	8.2
CC(C)Oc1cccc(-c2cn(Cc3c(F)cccc3C(F)(F)F)c(=O)n(C[C@H](N)c3ccccc3)c2=O)c1F	6.3
COc1cccc(-c2cn(Cc3c(F)cccc3F)c(=O)n(C[C@H](N)c3ccccc3)c2=O)c1Cl	1
CCOc1cccc(-c2cn(Cc3c(F)cccc3C(F)(F)F)c(=O)n(C[C@H](N)c3ccccc3)c2=O)c1F	1.8
COc1cccc(-c2cn(Cc3c(F)cccc3C(F)(F)F)c(=O)n(C[C@H](N)c3ccccc3)c2=O)c1Cl	0.45
N[C@@H](Cn1c(=O)c(-c2ccccc2F)cn(Cc2c(F)cccc2C(F)(F)F)c1=O)c1ccccc1	8
N[C@@H](Cn1c(=O)c(-c2ccc(C(F)(F)F)cc2Cl)cn(Cc2c(F)cccc2C(F)(F)F)c1=O)c1ccccc1	200
N[C@@H](Cn1c(=O)c(-c2cccc(O)c2F)cn(Cc2c(F)cccc2F)c1=O)c1ccccc1	660
